In patent publication US4182887A, “3-Amino-4-phenyl-1H-pyrazolo[3,4-b]pyridines and salts thereof” (Boehringer Ingelheim GmbH, priority 1976, dated 1980):

Tests used:
[1] = Acute toxicity in white mice after oral application of a single dose; assay type: in vivo; details: mouse, in vivo, observation time 14 days
Procedure: (§1) The acute toxicity of the compounds was determined in white mice (observation time: 14 days) after oral application of a single dose: […]

white mice = experiment: as above; assay type: in vivo; details: observation time 14 days, at the dose given in the same line
Procedure: as §1

[2] = test system: thrombocyte aggregation in platelet-rich plasma; experiment: Determination of effect on platelet aggregation by the method of Born and Cross (collagen-induced thrombocyte aggregation); assay type: cell-based; details: 10 min, platelet-rich plasma of healthy human donors, 10 min incubation at 37° C., read-out: ED50 (dose leading to a 50% inhibition of aggregation compared with the control group)
Procedure: 1. Determination of effect on platelet aggregation by the method of Born and Cross, J. Physiol. 170, 397 (1964):
The thrombocyte aggregation was measured in the platelet-rich plasma of healthy human donors. The course of change of the optical density of the platelet suspension was measured and recorded photometrically after the addition of commercial collagen containing 1 mg of collagen fibrils per ml. From the angle of inclination of the density curve, the rate of aggregation was estimated (Vmax). The optical density (O.D.) was taken as the point on the curve where the most light was transmitted.
As small doses of collagen as possible were chosen, but sufficient to give irreversible aggregation. To provoke maximum aggregation, about 0.01 ml of the collagen solution was added to 1 ml of platelet-rich plasma.
The test compounds were incubated at 37° C. for 10 minutes with the plasma before aggregation was provoked. The compounds were dissolved with a small quantity of hydrochloric acid or dimethyl formamide, and the solution was diluted to the desired final concentration with distilled water.
The dose leading to a 50% inhibition of aggregation compared with the control group (E D50) was determined.

Row | Compound | LD50 at 336 h [1] [mg/kg] | animals died (mortality in acute toxicity test) (white mice) | IC50 [2] [nM]
1 | COc1ccc(-c2cc(N3CCCCC3)nc3[nH]nc(N)c23)cc1 [G, 3-Amino-4-(4'-methoxy-phenyl)-6-piperidino-1H-pyrazolo [3,4-b]pyridine] | > 1500 | 0 out of 10 | 1000
2 | Nc1n[nH]c2nc(N3CCSCC3)cc(-c3ccccc3)c12 [B, 3-Amino-4-phenyl-6-thiomorpholino-1H-pyrazolo[3,4-b]pyridine] | > 250 | 0 out of 10 | 40
3 | Nc1n[nH]c2nc(N3CCOCC3)cc(-c3ccccc3)c12 [A, 3-Amino-6-morpholino-4-phenyl-1H-pyrazolo[3,4-b]pyridine] | > 250 | 0 out of 10 | 1000
4 | Nc1cc(-c2ccccc2)c2c(N)n[nH]c2n1 [I, 3,6-Diamino-4-phenyl-1H-pyrazolo[3,4-b]pyridine, reference compound] | > 1500 | 0 out of 10 | 100000
5 | Nc1n[nH]c2nc(N3CCCCC3)cc(-c3ccccc3)c12 [C, 3-Amino-4-phenyl-6-piperidino-1H-pyrazolo[3,4-b]pyridine] | > 250 | 0 out of 10 | 400
6 | CC1CCCN(c2cc(-c3ccccc3)c3c(N)n[nH]c3n2)C1 (stereo not shown) [D, 3-Amino-6-(3-methyl-piperidino)-4-phenyl-1H-pyrazolo[3,4-b]pyridine] | > 250 | 0 out of 10 | 300
7 | Nc1n[nH]c2nc(N3CCCCCC3)cc(-c3ccccc3)c12 [Compound E, 3-Amino-6-hexamethyleneimino-4-phenyl-1H-pyrazolo[3,4-b]pyridine] | > 5000 | 3 out of 10 | 40
8 | CCN(CC)c1cc(-c2ccccc2)c2c(N)n[nH]c2n1 [F, 3-Amino-6-diethylamino-4-phenyl-1H-pyrazolo[3,4-b]pyridine] | > 1500 | 0 out of 10 | 300
9 | Nc1n[nH]c2nc(N3CCCCCC3)cc(-c3ccc(F)cc3)c12 [H, 3-Amino-4-(4'-fluoro-phenyl)-6-hexamethyleneimino-1H-pyrazolo[3,4-b]pyridine] | – | – | 300
